Results reported in ChEMBL document CHEMBL4715859, “Small Molecules Selectively Targeting Sigma-1 Receptor for the Treatment of Neurological Diseases” (J Med Chem, 2020).

Legend:
[1] = target: T1, Sigma non-opioid intracellular receptor 1 (Homo sapiens, UniProt Q99720)
[2] = target: T1, Sigma non-opioid intracellular receptor 1; assay: Binding affinity to sigma-1 receptor (unknown origin)
[3] = target: Sigma intracellular receptor 2 (Homo sapiens, UniProt Q5BJF2); assay: Binding affinity to sigma-2 receptor (unknown origin)
[4] = target: Alpha-2A adrenergic receptor (Homo sapiens, UniProt P08913); assay: Binding affinity to alpha 2A adrenoceptor (unknown origin)
[5] = target: T2, Sigma non-opioid intracellular receptor 1 (Cavia porcellus, UniProt Q60492); assay: Displacement of [3H]-(+)-pentazocine from sigma1 receptor in guinea pig brain cortex membranes incubated for 120 mins by solid scintillation counting method; assay type: cell membranes, Membrane
[6] = target: T3, Sigma intracellular receptor 2 (Rattus norvegicus, UniProt Q5U3Y7); assay: Displacement of [3H]DTG from sigma2 receptor in rat liver membranes incubated for 120 mins by solid scintillation counting method; assay type: cell membranes, Membrane
T3 sequence (Q5U3Y7 whole entry): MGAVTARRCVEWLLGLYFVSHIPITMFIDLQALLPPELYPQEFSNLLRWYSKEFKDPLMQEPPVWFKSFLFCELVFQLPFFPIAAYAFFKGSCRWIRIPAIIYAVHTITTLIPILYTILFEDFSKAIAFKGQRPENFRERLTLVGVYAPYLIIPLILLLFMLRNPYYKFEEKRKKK

[7] = Selectivity ratio of Ki for displacement of [3H]DTG from sigma2 receptor in rat liver membranes to Ki for displacement of [3H]-(+)-pentazocine from sigma1 receptor in guinea pig brain cortex membranes; assay type: cell membranes
[8] = target: T3, Sigma intracellular receptor 2; assay type: cell membranes, Sprague-Dawley, Brain, Membrane
[9] = target: T4, Sigma non-opioid intracellular receptor 1 (Rattus norvegicus, UniProt Q9R0C9); assay type: cell membranes, Sprague-Dawley, Brain, Membrane
[10] = target: Muscarinic acetylcholine receptor M1 (Homo sapiens, UniProt P11229); assay: Binding affinity to muscarinic acetylcholine receptor M1 (unknown origin)
[11] = target: Muscarinic acetylcholine receptor M2 (Homo sapiens, UniProt P08172); assay: Binding affinity to muscarinic acetylcholine receptor M2 (unknown origin)
[12] = target: Muscarinic acetylcholine receptor M3 (Homo sapiens, UniProt P20309); assay: Binding affinity to muscarinic acetylcholine receptor M3 (unknown origin)
[13] = target: Muscarinic acetylcholine receptor M4 (Homo sapiens, UniProt P08173); assay: Binding affinity to muscarinic acetylcholine receptor M4 (unknown origin)
[14] = Selectivity ratio of Ki for displacement of [3H]DTG from sigma2 receptor in rat PC12 cells to Ki for displacement of [3H]-(+)-pentazocine from sigma1 receptor in guinea pig brain homogenate; assay type: cell-based
[15] = target: T5, Sodium-dependent dopamine transporter (Homo sapiens, UniProt Q01959); assay: Displacement of [3H]WIN35428 from dopamine transporter (unknown origin) by liquid scintillation counting method
[16] = target: T6, Sodium-dependent noradrenaline transporter (Homo sapiens, UniProt P23975); assay: Displacement of [3H]nisoxetine from norepinephrine transporter (unknown origin) by liquid scintillation counting method
[17] = target: Sodium-dependent serotonin transporter (Homo sapiens, UniProt P31645); assay: Displacement of [3H]citalopram from serotonin transporter (unknown origin) by liquid scintillation counting method
[18] = target: Sigma non-opioid intracellular receptor 1 (Mus musculus, UniProt O55242); assay: Inhibition of radioligand binding to sigma1 receptor in C57BL/6 mouse brain membranes; assay type: cell membranes, Membrane
[19] = target: Sigma intracellular receptor 2 (Mus musculus, UniProt Q8VD00); assay: Inhibition of radioligand binding to sigma2 receptor in C57BL/6 mouse brain membranes; assay type: cell membranes, Membrane
[20] = Displacement of [3H]DTG from sigma2 receptor in guinea pig brain membranes by scintillation counting method; assay type: cell membranes, Cavia porcellus, Membrane
[21] = target: T2, Sigma non-opioid intracellular receptor 1; assay: Displacement of [3H]-(+)-pentazocine from sigma 1 receptor in guinea pig brain cortex membranes incubated for 120 mins by solid scintillation counting method; assay type: cell membranes, Membrane
[22] = target: Kappa-type opioid receptor (Homo sapiens, UniProt P41145); assay: Binding affinity to kappa opioid receptor (unknown origin)
[23] = target: T2, Sigma non-opioid intracellular receptor 1; assay: Displacement of [3H]-(+)-pentazocine from sigma 1 receptor in Dunkin-Hartley guinea pig brain membranes incubated for 180 mins by liquid scintillation counting method; assay type: cell membranes, Membrane
[24] = Displacement of [3H]-dio-tolylguanidine from Sigma 2 receptor in Dunkin-Hartley guinea pig brain membrane incubated for 120 mins in presence of sigma1 blocker (+)-SKF-10047 by liquid scintillation counting method; assay type: cell membranes, Cavia porcellus
Cavia porcellus = organism: Cavia porcellus; assay: Selectivity ratio of Ki for sigma 2 receptor in Dunkin-Hartley guinea pig brain membranes to Ki for sigma 1 receptor in Dunkin-Hartley guinea pig brain membrane
Histamine H3 receptor = Histamine H3 receptor (Rattus norvegicus, UniProt Q9QYN8); assay: Displacement of [3H]-methylhistamine from Histamine H3 receptor in rat cerebral cortex incubated for 30 min by liquid scintillation counting method; assay type: tissue-based
[25] = target: T2, Sigma non-opioid intracellular receptor 1; assay: Displacement of [3H]-(+)-pentazocine from sigma 1 receptor in Dunkin guinea pig brain membranes incubated for 120 mins by scintillation counting method; assay type: cell membranes, Membrane
[26] = target: T3, Sigma intracellular receptor 2; assay: Displacement of [3H]DTG from sigma2 receptor in Wistar Hannover rat liver membranes incubated for 120 mins by solid scintillation counting method; assay type: cell membranes, Membrane
[27] = Selectivity ratio of Ki for sigma2 receptor in Wistar Hannover rat liver membranes to Ki for sigma 1 receptor in Dunkin guinea pig brain membranes; assay type: cell membranes
[28] = target: D(4) dopamine receptor (Homo sapiens) (UniProt P21917); assay: Inhibition of radioligand binding to dopamine D4 receptor (unknown origin) at 1 uM relative to control
[29] = target: Histamine H2 receptor (Homo sapiens) (UniProt P25021); assay: Inhibition of radioligand binding to histamine H2 receptor (unknown origin) at 1 uM relative to control
[30] = target: T6, Sodium-dependent noradrenaline transporter; assay: Inhibition of radioligand binding to noradrenaline transporter (unknown origin) at 1 uM relative to control
[31] = target: T5, Sodium-dependent dopamine transporter; assay: Inhibition of radioligand binding to dopamine transporter (unknown origin) at 1 uM relative to control
[32] = target: T4, Sigma non-opioid intracellular receptor 1; assay: Displacement of [3H]-(+)-pentazocine from sigma 1 receptor in rat liver membranes incubated for 60 mins […] by radioactivity method; assay type: cell membranes, Membrane
[33] = target: T3, Sigma intracellular receptor 2; assay: Displacement of [3H]DTG from sigma 2 receptor in rat liver membranes incubated for 60 mins in presence of [3H]-(+)-pentazocine by radioactivity method; assay type: cell membranes, Membrane

T2 sequence (Q60492 whole entry): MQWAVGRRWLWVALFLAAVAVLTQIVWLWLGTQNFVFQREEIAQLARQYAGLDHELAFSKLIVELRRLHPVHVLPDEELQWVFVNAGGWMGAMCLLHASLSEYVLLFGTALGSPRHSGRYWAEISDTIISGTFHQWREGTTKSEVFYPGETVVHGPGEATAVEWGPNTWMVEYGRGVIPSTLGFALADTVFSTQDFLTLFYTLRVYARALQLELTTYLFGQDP
T1 sequence (Q99720 whole entry): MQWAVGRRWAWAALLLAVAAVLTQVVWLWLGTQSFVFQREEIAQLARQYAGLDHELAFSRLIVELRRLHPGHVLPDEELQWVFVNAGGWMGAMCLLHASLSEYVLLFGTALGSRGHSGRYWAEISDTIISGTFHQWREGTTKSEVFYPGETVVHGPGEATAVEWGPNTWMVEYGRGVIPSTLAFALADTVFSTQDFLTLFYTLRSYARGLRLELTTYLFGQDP
T5 sequence (Q01959 whole entry): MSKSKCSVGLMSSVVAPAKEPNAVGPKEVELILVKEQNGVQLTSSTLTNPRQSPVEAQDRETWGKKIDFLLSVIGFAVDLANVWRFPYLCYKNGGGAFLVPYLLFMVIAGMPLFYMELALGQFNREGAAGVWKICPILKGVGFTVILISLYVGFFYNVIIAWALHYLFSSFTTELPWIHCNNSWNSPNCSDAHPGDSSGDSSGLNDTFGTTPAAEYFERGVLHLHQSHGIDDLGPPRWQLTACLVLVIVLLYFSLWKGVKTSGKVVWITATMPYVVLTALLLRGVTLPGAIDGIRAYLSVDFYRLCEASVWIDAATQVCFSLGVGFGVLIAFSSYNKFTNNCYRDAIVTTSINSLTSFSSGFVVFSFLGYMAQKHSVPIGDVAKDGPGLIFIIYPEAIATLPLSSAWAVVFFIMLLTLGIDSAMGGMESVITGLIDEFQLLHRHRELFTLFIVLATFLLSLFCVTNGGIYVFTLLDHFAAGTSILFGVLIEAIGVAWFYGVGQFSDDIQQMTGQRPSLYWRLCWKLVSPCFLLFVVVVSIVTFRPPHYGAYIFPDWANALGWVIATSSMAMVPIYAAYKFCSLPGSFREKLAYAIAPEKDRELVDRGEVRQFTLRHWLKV
Sigma intracellular receptor 2 (Homo sapiens, UniProt Q5BJF2), sequence (Q5BJF2 whole entry): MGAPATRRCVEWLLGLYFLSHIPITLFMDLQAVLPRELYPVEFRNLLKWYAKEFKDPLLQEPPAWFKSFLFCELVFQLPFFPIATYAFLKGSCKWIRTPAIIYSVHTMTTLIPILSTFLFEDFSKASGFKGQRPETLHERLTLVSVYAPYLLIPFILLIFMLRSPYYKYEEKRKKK
T6 sequence (P23975 whole entry): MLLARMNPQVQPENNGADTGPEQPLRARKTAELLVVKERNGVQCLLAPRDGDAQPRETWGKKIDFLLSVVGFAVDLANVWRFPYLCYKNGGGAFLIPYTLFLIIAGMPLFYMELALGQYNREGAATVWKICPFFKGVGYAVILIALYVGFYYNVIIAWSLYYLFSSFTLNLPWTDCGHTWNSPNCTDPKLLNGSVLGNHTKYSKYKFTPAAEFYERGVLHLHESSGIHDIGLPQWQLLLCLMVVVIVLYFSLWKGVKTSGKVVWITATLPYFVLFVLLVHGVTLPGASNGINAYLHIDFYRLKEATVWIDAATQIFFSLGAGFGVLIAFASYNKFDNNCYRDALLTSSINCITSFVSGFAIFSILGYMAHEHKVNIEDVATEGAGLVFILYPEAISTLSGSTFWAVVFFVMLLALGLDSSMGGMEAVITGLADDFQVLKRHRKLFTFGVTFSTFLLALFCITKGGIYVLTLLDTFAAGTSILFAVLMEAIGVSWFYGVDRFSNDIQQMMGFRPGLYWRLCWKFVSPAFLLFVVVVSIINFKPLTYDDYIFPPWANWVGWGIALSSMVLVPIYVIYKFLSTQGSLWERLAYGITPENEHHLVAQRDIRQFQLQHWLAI
T4 sequence (Q9R0C9 whole entry): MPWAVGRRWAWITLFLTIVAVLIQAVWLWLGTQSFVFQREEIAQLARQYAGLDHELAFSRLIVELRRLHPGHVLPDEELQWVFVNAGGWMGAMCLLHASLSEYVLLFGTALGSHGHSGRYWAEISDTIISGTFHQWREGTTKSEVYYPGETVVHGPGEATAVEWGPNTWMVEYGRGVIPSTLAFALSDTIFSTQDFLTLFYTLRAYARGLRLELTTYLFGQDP
Histamine H2 receptor (Homo sapiens), sequence (P25021 whole entry): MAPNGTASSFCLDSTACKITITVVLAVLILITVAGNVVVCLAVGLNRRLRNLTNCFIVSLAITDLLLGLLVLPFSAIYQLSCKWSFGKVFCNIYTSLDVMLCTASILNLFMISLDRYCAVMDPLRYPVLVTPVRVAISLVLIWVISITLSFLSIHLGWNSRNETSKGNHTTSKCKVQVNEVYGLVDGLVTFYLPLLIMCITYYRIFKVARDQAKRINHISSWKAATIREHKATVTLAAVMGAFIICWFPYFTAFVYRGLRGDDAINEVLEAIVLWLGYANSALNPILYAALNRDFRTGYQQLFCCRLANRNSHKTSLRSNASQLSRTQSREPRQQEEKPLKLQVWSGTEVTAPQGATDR
Muscarinic acetylcholine receptor M1, sequence (P11229 whole entry): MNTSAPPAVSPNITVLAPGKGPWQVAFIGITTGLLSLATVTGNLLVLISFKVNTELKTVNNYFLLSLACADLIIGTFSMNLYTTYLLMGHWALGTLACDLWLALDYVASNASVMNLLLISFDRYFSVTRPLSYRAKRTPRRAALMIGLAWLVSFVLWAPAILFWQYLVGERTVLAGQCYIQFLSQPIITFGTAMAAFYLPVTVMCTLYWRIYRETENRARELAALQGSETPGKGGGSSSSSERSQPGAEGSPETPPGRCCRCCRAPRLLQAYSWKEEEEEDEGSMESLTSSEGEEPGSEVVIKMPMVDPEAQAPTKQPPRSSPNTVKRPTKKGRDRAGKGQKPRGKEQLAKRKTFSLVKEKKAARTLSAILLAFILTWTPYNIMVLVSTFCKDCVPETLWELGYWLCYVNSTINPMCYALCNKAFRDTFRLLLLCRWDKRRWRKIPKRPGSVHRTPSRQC
Sigma non-opioid intracellular receptor 1 (Mus musculus, UniProt O55242), sequence (O55242 whole entry): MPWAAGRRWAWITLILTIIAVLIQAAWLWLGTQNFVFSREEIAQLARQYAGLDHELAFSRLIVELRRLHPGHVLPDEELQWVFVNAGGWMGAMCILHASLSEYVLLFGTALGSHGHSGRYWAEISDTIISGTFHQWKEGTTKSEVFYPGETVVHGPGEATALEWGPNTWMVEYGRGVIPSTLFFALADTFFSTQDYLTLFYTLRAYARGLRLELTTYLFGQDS
Muscarinic acetylcholine receptor M2, sequence (P08172 whole entry): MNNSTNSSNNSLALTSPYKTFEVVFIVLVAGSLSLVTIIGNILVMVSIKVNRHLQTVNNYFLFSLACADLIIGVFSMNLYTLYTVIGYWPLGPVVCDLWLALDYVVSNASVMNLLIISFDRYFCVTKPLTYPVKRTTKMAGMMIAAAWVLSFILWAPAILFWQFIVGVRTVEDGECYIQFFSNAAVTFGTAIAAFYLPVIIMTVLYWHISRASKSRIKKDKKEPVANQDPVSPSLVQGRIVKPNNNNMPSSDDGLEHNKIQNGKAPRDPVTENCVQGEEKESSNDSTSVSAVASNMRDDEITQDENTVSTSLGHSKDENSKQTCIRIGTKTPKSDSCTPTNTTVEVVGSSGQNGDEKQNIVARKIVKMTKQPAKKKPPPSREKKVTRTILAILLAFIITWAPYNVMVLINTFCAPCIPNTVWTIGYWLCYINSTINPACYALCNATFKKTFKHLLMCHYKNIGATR
Muscarinic acetylcholine receptor M4, sequence (P08173 whole entry): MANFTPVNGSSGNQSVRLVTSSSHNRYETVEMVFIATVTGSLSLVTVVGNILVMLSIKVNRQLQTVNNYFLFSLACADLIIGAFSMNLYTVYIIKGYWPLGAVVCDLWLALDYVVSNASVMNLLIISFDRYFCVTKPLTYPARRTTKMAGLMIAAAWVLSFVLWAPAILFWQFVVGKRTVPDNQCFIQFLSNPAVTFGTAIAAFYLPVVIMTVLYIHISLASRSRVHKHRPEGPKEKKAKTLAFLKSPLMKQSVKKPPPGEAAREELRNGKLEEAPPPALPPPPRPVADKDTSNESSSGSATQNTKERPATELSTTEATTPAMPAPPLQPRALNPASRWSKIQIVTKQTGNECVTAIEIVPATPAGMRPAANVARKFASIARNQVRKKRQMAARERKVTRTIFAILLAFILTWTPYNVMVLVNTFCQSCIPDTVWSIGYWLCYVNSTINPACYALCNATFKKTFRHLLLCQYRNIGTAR
Muscarinic acetylcholine receptor M3, sequence (P20309 whole entry): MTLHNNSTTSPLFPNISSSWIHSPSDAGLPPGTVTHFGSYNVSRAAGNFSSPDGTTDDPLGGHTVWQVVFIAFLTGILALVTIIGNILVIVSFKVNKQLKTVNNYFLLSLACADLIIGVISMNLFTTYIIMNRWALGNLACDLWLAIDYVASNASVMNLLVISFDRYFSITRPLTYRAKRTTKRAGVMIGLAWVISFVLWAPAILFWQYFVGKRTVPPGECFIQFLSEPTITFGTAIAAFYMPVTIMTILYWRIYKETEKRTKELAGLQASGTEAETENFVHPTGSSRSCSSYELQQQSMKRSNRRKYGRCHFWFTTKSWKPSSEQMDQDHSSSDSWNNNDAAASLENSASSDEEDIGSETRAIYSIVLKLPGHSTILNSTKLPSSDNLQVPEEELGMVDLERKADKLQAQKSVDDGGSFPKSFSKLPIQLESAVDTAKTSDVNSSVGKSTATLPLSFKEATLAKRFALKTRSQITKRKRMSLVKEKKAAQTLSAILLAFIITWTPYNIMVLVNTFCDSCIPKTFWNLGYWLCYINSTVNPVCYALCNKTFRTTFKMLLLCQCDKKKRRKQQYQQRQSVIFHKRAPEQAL
Sigma intracellular receptor 2 (Mus musculus, UniProt Q8VD00), sequence (Q8VD00 whole entry): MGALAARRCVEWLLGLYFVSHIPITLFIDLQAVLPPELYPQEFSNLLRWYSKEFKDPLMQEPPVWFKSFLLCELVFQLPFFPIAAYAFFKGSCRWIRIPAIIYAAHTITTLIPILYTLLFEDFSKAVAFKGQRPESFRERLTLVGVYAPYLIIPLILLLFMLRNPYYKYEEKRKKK

CCCN1CCC(c2cccc(S(C)(=O)=O)c2)CC1 [PRIDOPIDINE]
Ki [1]: 81.7 nM

C=C1CCN2Cc3ccc(OC)cc3[C@H]3CCCC[C@]32C1
Ki [2]: 8 nM
Ki [3]: 152 nM
Ki [4]: 531 nM

CCOC1(c2ncc(-c3ccncc3)s2)CCN(Cc2ccccc2)CC1
Ki [5]: 1.9 nM
Ki [6]: 3600 nM
Ratio Ki [7]: > 1500

c1ccc(CO[C@H](c2ccccc2)[C@H]2CCN(Cc3ccccc3)Cc3ccccc32)cc1
Ki [5]: 9 nM
Ki [6]: 668 nM
Ratio Ki [7]: > 52

CN(C)CCCN1c2ccccc2CCc2ccccc21 [IMIPRAMINE]
Ki [8]: 2110 nM
Ki [9]: 343 nM

CN(C)CC1CCOC1(c1ccccc1)c1ccccc1 (configuration not stated) [BLARCAMESINE]
IC50 [2]: 860 nM
IC50 [10]: 3300 nM
IC50 [11]: 3300 nM
IC50 [12]: 3300 nM
IC50 [13]: 3300 nM

c1ccc(CC2CCN(CC3CCCCC3)Cc3ccccc32)cc1 (configuration not stated)
Ki [5]: 2.4 nM
Ki [6]: 125 nM
Ratio Ki [7]: > 52

c1ccc(OCc2cc(OCCNC3CCC3)no2)cc1
Ratio Ki [14]: 990
Ki [15]: > 7000 nM
Ki [16]: > 7000 nM
Ki [17]: > 7000 nM

C#CCN(C)CCCOc1ccc(Cl)cc1Cl [CLORGILINE]
Ki [18]: 2.9 nM
Ki [19]: 505 nM

COc1ccc(CCN2CCN(CCCc3ccccc3)CC2)cc1OC [[11C]SA4503]
IC50 [20]: 1800 nM

O=C(COc1ccc(Cl)c(Cl)c1)NCCN1CCOCC1
Ki [6]: 1500 nM
Ki [21]: 42 nM

CCN(CC)CCOCCOC(=O)C1(c2ccccc2)CCCC1 [CARBETAPENTANE]
Ki [2]: 129 nM
Ki [3]: 1950 nM

CC(C)=CCN1CCC2(C)c3cc(O)ccc3CC1C2C (configuration not stated) [PENTAZOCINE]
Ki [22]: 2.2 nM

Clc1ccc(-c2noc(CCCCN3CCOCC3)n2)c(Cl)c1
Ki [23]: 0.28 nM
Ki [24]: 164 nM
Ratio Ki (Cavia porcellus): 587
Ki (Histamine H3 receptor): 23.2 nM

CCOC1(c2ncc(-c3cccnc3)s2)CCN(Cc2ccccc2)CC1
Ki [5]: 1.3 nM
Ki [6]: 2130 nM
Ratio Ki [7]: > 1500

COc1ccc2c(CCCCN3C4CCCC3CCC4)cccc2c1
Ki [25]: 1.03 nM
Ki [26]: 226 nM
Ratio Ki [27]: 317

CNCCC(Oc1ccc(C(F)(F)F)cc1)c1ccccc1 (configuration not stated) [FLUOXETINE]
Ki [8]: 16100 nM

Fc1ccc(CN2CCC(Cc3ccccc3)c3ccccc3C2)cc1 (configuration not stated)
Ki [5]: 7.1 nM
Ki [6]: 889 nM
Ratio Ki [7]: > 52
inhibition [28]: 91%
inhibition [29]: 59%
inhibition [30]: 71%
inhibition [31]: 85%

c1ccc(CN2CCC3(CCc4ccccc4S3)CC2)cc1
Ki [32]: 0.5 nM
Ki [33]: 416 nM
